Source: BigSolDB 2.1

C=C[C@]1(C)C[C@@H](OC(=O)CSCCN(CC)CC)[C@]2(C)[C@H](C)CC[C@]3(CCC(=O)[C@H]32)[C@@H](C)[C@@H]1O.O=C(O)/C=C/C(=O)O
solubility (mole fraction)
Details	283.15 K	293.15 K	303.15 K	313.15 K	323.15 K
in MIBK	0.000867	0.00108	0.00134	0.00191	0.00254
in acetone	0.00132	0.00257	0.00377	0.00574	0.00861
in acetonitrile	8.33e-05	0.00016	0.000235	0.000495	0.000993
in ethyl acetate	0.000525	0.000719	0.00102	0.00147	0.00215
in isobutyl acetate	0.000437	0.000574	0.000744	0.00103	0.00143
in isopropanol	0.00103	0.00124	0.00173	0.00288	0.00466
in isopropyl acetate	0.00044	0.00061	0.000823	0.00118	0.00163
in methyl acetate	0.000372	0.000443	0.000624	0.000964	0.00142
in n-butanol	0.00276	0.00458	0.00596	0.00962	0.0173
in n-butyl acetate	0.000517	0.000712	0.001	0.0013	0.00168
in toluene	5.73e-05	9.62e-05	0.000174	0.000274	0.000537
